In ChEMBL document CHEMBL1649268, “Comparative in vitro activity profile of oritavancin against recent gram-positive clinical isolates” (2009):
Values after ≈ are worked out from the molar mass of the structure shown.

Assays:
[1] = tested on: Staphylococcus epidermidis; experiment: Antimicrobial activity against oxacillin-resistant Staphylococcus epidermidis clinical isolates by broth microdilution method; type: functional
Enterococcus faecium [2] = experiment: Antimicrobial activity against Enterococcus faecium clinical isolates assessed as percent susceptible isolates by broth microdilution method; type: functional
Enterococcus faecalis [3] = experiment: Antimicrobial activity against vancomycin-nonsusceptible Enterococcus faecalis clinical isolates assessed as percent susceptible isolates by broth microdilution method; type: functional
Enterococcus faecium [4] = experiment: Antimicrobial activity against Enterococcus faecium clinical isolates assessed as resistant isolates by broth microdilution method; type: functional
Staphylococcus aureus [5] = experiment: Antimicrobial activity against oxacillin-susceptible Staphylococcus aureus clinical isolates assessed as percent susceptible isolates by broth microdilution method; type: functional
[6] = tested on: Staphylococcus haemolyticus; experiment: Antimicrobial activity against oxacillin-susceptible Staphylococcus haemolyticus clinical isolates by broth microdilution method; type: functional
[7] = tested on: Staphylococcus haemolyticus; experiment: Antimicrobial activity against oxacillin-resistant Staphylococcus haemolyticus clinical isolates assessed as percent susceptible isolates by broth microdilution method; type: functional
Enterococcus faecium [8] = experiment: Antimicrobial activity against Enterococcus faecium expressing VanB gene clinical isolates by broth microdilution method; type: functional
Enterococcus faecalis [9] = experiment: Antimicrobial activity against Enterococcus faecalis expressing VanB gene clinical isolates by broth microdilution method; type: functional
Enterococcus faecalis [10] = experiment: Antimicrobial activity against Enterococcus faecalis clinical isolates by broth microdilution method; type: functional
Streptococcus [11] = experiment: Antimicrobial activity against erythromycin-susceptible Streptococcus Group F clinical isolates assessed as percent susceptible isolates by broth microdilution method; type: functional
Enterococcus faecalis [12] = experiment: Antimicrobial activity against Enterococcus faecalis clinical isolates assessed as percent susceptible isolates by broth microdilution method; type: functional
Streptococcus [13] = experiment: Antimicrobial activity against Streptococcus Group F clinical isolates assessed as percent susceptible isolates by broth microdilution method; type: functional
[14] = tested on: Staphylococcus epidermidis; experiment: Antimicrobial activity against oxacillin-susceptible Staphylococcus epidermidis clinical isolates assessed as percent susceptible isolates by broth microdilution method; type: functional
Enterococcus faecalis [15] = experiment: Antimicrobial activity against vancomycin-susceptible Enterococcus faecalis clinical isolates assessed as percent susceptible isolates by broth microdilution method; type: functional
Streptococcus [16] = experiment: Antimicrobial activity against erythromycin-nonsusceptible Streptococcus Group F clinical isolates assessed as percent susceptible isolates by broth microdilution method; type: functional
[17] = tested on: Staphylococcus epidermidis; experiment: Antimicrobial activity against oxacillin-resistant Staphylococcus epidermidis clinical isolates assessed as resistant isolates by broth microdilution method; type: functional
Enterococcus faecium [18] = experiment: Antimicrobial activity against vancomycin-susceptible Enterococcus faecium clinical isolates by broth microdilution method; type: functional
[19] = tested on: Staphylococcus haemolyticus; experiment: Antimicrobial activity against oxacillin-susceptible Staphylococcus haemolyticus clinical isolates assessed as resistant isolates by broth microdilution method; type: functional
Staphylococcus aureus [20] = experiment: Antimicrobial activity against Staphylococcus aureus clinical isolates by broth microdilution method; type: functional
Enterococcus faecalis [21] = experiment: Antimicrobial activity against Enterococcus faecalis clinical isolates assessed as resistant isolates by broth microdilution method; type: functional
Enterococcus faecalis [22] = experiment: Antimicrobial activity against vancomycin-susceptible Enterococcus faecalis clinical isolates by broth microdilution method; type: functional
Staphylococcus aureus [23] = experiment: Antimicrobial activity against oxacillin-resistant Staphylococcus aureus clinical isolates assessed as percent susceptible isolates by broth microdilution method; type: functional
[24] = tested on: Staphylococcus haemolyticus; experiment: Antimicrobial activity against Staphylococcus haemolyticus clinical isolates assessed as resistant isolates by broth microdilution method; type: functional
[25] = tested on: Staphylococcus haemolyticus; experiment: Antimicrobial activity against oxacillin-susceptible Staphylococcus haemolyticus clinical isolates assessed as percent susceptible isolates by broth microdilution method; type: functional
Enterococcus faecium [26] = experiment: Antimicrobial activity against Enterococcus faecium clinical isolates by broth microdilution method; type: functional
Staphylococcus aureus [27] = experiment: Antimicrobial activity against Staphylococcus aureus clinical isolates assessed as percent susceptible isolates by broth microdilution method; type: functional
Staphylococcus aureus [28] = experiment: Antimicrobial activity against oxacillin-resistant Staphylococcus aureus clinical isolates by broth microdilution method; type: functional
Enterococcus faecalis [29] = experiment: Antimicrobial activity against vancomycin-nonsusceptible Enterococcus faecalis clinical isolates assessed as resistant isolates by broth microdilution method; type: functional
[30] = tested on: Staphylococcus haemolyticus; experiment: Antimicrobial activity against Staphylococcus haemolyticus clinical isolates assessed as percent susceptible isolates by broth microdilution method; type: functional
Staphylococcus aureus [31] = experiment: Antimicrobial activity against oxacillin-susceptible Staphylococcus aureus clinical isolates assessed as resistant isolates by broth microdilution method; type: functional
Enterococcus faecium [32] = experiment: Antimicrobial activity against Enterococcus faecium expressing VanA gene clinical isolates assessed as percent susceptible isolates by broth microdilution method; type: functional
[33] = tested on: Staphylococcus epidermidis; experiment: Antimicrobial activity against Staphylococcus epidermidis clinical isolates by broth microdilution method; type: functional
[34] = Antimicrobial activity against erythromycin-nonsusceptible Streptococcus Group C clinical isolates assessed as percent susceptible isolates by broth microdilution method; type: functional, Streptococcus sp. 'group C'
Enterococcus faecalis [35] = experiment: Antimicrobial activity against vancomycin-nonsusceptible Enterococcus faecalis clinical isolates by broth microdilution method; type: functional
Enterococcus faecalis [36] = experiment: Antimicrobial activity against Enterococcus faecalis expressing VanA gene clinical isolates assessed as resistant isolates by broth microdilution method; type: functional
Enterococcus faecalis [37] = experiment: Antimicrobial activity against vancomycin-susceptible Enterococcus faecalis clinical isolates assessed as resistant isolates by broth microdilution method; type: functional
Enterococcus faecalis [38] = experiment: Antimicrobial activity against Enterococcus faecalis expressing VanB gene clinical isolates assessed as resistant isolates by broth microdilution method; type: functional
Enterococcus faecium [39] = experiment: Antimicrobial activity against vancomycin-susceptible Enterococcus faecium clinical isolates assessed as resistant isolates by broth microdilution method; type: functional
[40] = Antimicrobial activity against erythromycin-nonsusceptible Streptococcus Group G clinical isolates assessed as percent susceptible isolates by broth microdilution method; type: functional, Streptococcus sp. 'group G'
Enterococcus faecium [41] = experiment: Antimicrobial activity against Enterococcus faecium expressing VanB gene clinical isolates assessed as percent susceptible isolates by broth microdilution method; type: functional
[42] = Antimicrobial activity against Streptococcus Group G clinical isolates assessed as percent susceptible isolates by broth microdilution method; type: functional, Streptococcus sp. 'group G'
Streptococcus [43] = experiment: Antimicrobial activity against erythromycin-nonsusceptible Streptococcus Group F clinical isolates assessed as resistant isolates by broth microdilution method; type: functional
Streptococcus [44] = experiment: Antimicrobial activity against erythromycin-susceptible Streptococcus Group F clinical isolates assessed as resistant isolates by broth microdilution method; type: functional
Streptococcus pneumoniae [45] = experiment: Antimicrobial activity against penicillin-susceptible Streptococcus pneumoniae clinical isolates assessed as resistant isolates by broth microdilution method; type: functional
Streptococcus [46] = experiment: Antimicrobial activity against Streptococcus Group F clinical isolates assessed as resistant isolates by broth microdilution method; type: functional
Streptococcus pneumoniae [47] = experiment: Antimicrobial activity against penicillin-intermediate Streptococcus pneumoniae clinical isolates assessed as resistant isolates by broth microdilution method; type: functional
Streptococcus pneumoniae [48] = experiment: Antimicrobial activity against penicillin-resistant Streptococcus pneumoniae clinical isolates assessed as resistant isolates by broth microdilution method; type: functional
[49] = Antimicrobial activity against Streptococcus Group G clinical isolates assessed as resistant isolates by broth microdilution method; type: functional, Streptococcus sp. 'group G'
Streptococcus pyogenes [50] = experiment: Antimicrobial activity against Streptococcus pyogenes clinical isolates assessed as resistant isolates by broth microdilution method; type: functional
Streptococcus pyogenes [51] = experiment: Antimicrobial activity against erythromycin-nonsusceptible Streptococcus pyogenes clinical isolates assessed as resistant isolates by broth microdilution method; type: functional
[52] = Antimicrobial activity against Streptococcus Group C clinical isolates assessed as resistant isolates by broth microdilution method; type: functional, Streptococcus sp. 'group C'
[53] = Antimicrobial activity against erythromycin-nonsusceptible Streptococcus Group C clinical isolates assessed as resistant isolates by broth microdilution method; type: functional, Streptococcus sp. 'group C'
Enterococcus faecium [54] = experiment: Antimicrobial activity against vancomycin-nonsusceptible Enterococcus faecium clinical isolates assessed as resistant isolates by broth microdilution method; type: functional
Enterococcus faecium [55] = experiment: Antimicrobial activity against Enterococcus faecium expressing VanB gene clinical isolates assessed as resistant isolates by broth microdilution method; type: functional
Enterococcus faecium [56] = experiment: Antimicrobial activity against Enterococcus faecium expressing VanA gene clinical isolates assessed as resistant isolates by broth microdilution method; type: functional

## CN[C@H](CC(C)C)C(=O)N[C@H]1C(=O)N[C@@H](CC(N)=O)C(=O)N[C@H]2C(=O)N[C@H]3C(=O)N[C@H](C(=O)N[C@H](C(=O)O)c4cc(O)cc(O)c4-c4cc3ccc4O)[C@H](O)c3ccc(c(Cl)c3)Oc3cc2cc(c3O[C@@H]2O[C@H](CO)[C@@H](O)[C@H](O)[C@H]2O[C@H]2C[C@](C)(N)[C@H](O)[C@H](C)O2)Oc2ccc(cc2Cl)[C@H]1O [VANCOMYCIN]
[1]
  MIC90: 2 µg/mL (≈ 1.38 µM)
Enterococcus faecium [2]
  Activity: 42.7%
Enterococcus faecalis [3]
  Activity: 0%
Enterococcus faecium [4]
  Activity: 56.3%
Staphylococcus aureus [5]
  Activity: 100%
[6]
  MIC90: 1 µg/mL (≈ 0.69 µM)
[7]
  Activity: 100%
Enterococcus faecium [8]
  MIC90: 256 µg/mL (≈ 177 µM)
Enterococcus faecalis [9]
  MIC90: > 256 µg/mL
Enterococcus faecalis [10]
  MIC90: 2 µg/mL (≈ 1.38 µM)
Streptococcus [11]
  Activity: 100%
Enterococcus faecalis [12]
  Activity: 95%
Streptococcus [13]
  Activity: 100%
[14]
  Activity: 100%
Enterococcus faecalis [15]
  Activity: 100%
Streptococcus [16]
  Activity: 100%
[17]
  Percent of isolates resistant: 0%
Enterococcus faecium [18]
  MIC90: 1 µg/mL (≈ 0.69 µM)
[19]
  Activity: 0%
Staphylococcus aureus [20]
  MIC90: 1 µg/mL (≈ 0.69 µM)
Enterococcus faecalis [21]
  Activity: 4.7%
Enterococcus faecalis [22]
  MIC90: 2 µg/mL (≈ 1.38 µM)
Staphylococcus aureus [23]
  Activity: 100%
[24]
  Resistant isolates: 0%
[25]
  Activity: 100%
Enterococcus faecium [26]
  MIC90: > 256 µg/mL
Staphylococcus aureus [27]
  Activity: 100%
Staphylococcus aureus [28]
  MIC90: 1 µg/mL (≈ 0.69 µM)
Enterococcus faecalis [29]
  Activity: 94.3%
[30]
  Activity: 100%
Staphylococcus aureus [31]
  Percent of isolates resistant: 0%
Enterococcus faecium [32]
  Activity: 0%
[33]
  MIC90: 2 µg/mL (≈ 1.38 µM)
[34]
  Activity: 100%
Enterococcus faecalis [35]
  MIC90: > 256 µg/mL
Enterococcus faecalis [36]
  Activity: 100%
Enterococcus faecalis [37]
  Activity: 0%
Enterococcus faecalis [38]
  Activity: 100%
Enterococcus faecium [39]
  Activity: 0%
[40]
  Activity: 100%
Enterococcus faecium [41]
  Activity: 0%
[42]
  Activity: 100%

## CCC[C@@H]1C[C@@H](C(=O)N[C@@H]([C@H]2O[C@H](SC)[C@H](O)[C@@H](O)[C@H]2O)[C@H](C)Cl)N(C)C1 [CLINDAMYCIN]
Streptococcus [43]
  Activity: 17.6%
Streptococcus [44]
  Activity: 0%
Staphylococcus aureus [5]
  Activity: 91.8%
[6]
  MIC90: 0.12 µg/mL (≈ 0.282 µM)
[7]
  Activity: 60.9%
Streptococcus pneumoniae [45]
  Percent of isolates resistant: 2.6%
Streptococcus [11]
  Activity: 100%
Streptococcus [46]
  Activity: 3.6%
Streptococcus pneumoniae [47]
  Percent of isolates resistant: 15.3%
Streptococcus [13]
  Activity: 96.4%
[14]
  Activity: 88.2%
Streptococcus pneumoniae [48]
  Percent of isolates resistant: 54.1%
Streptococcus [16]
  Activity: 82.4%
[49]
  Activity: 3.6%
[17]
  Percent of isolates resistant: 43.3%
[19]
  Activity: 2.8%
Streptococcus pyogenes [50]
  Activity: 3.9%
Staphylococcus aureus [20]
  MIC90: > 4 µg/mL
Streptococcus pyogenes [51]
  Activity: 28.2%
Staphylococcus aureus [23]
  Activity: 61.9%
[24]
  Resistant isolates: 27.9%
[25]
  Activity: 95.8%
Staphylococcus aureus [27]
  Activity: 75.7%
[30]
  Activity: 70.3%
Staphylococcus aureus [31]
  Percent of isolates resistant: 8%
[33]
  MIC90: > 4 µg/mL
[52]
  Activity: 3.6%
[34]
  Activity: 82.4%
[53]
  Activity: 17.6%
[40]
  Activity: 82.4%
[42]
  Activity: 96.4%

## C[C@H]1COc2c(N3CCN(C)CC3)c(F)cc3c(=O)c(C(=O)O)cn1c23.C[C@H]1COc2c(N3CCN(C)CC3)c(F)cc3c(=O)c(C(=O)O)cn1c23.O [LEVOFLOXACIN]
Enterococcus faecium [54]
  Activity: 99.8%
Enterococcus faecium [2]
  Activity: 12.2%
Enterococcus faecalis [3]
  Activity: 0%
Enterococcus faecium [4]
  Activity: 85.3%
Streptococcus pneumoniae [45]
  Percent of isolates resistant: 0.5%
Enterococcus faecium [8]
  MIC90: > 16 µg/mL
Enterococcus faecalis [9]
  MIC90: > 16 µg/mL
Enterococcus faecalis [10]
  MIC90: > 16 µg/mL
Streptococcus pneumoniae [47]
  Percent of isolates resistant: 2.3%
Enterococcus faecalis [12]
  Activity: 61.2%
Enterococcus faecalis [15]
  Activity: 64.4%
Streptococcus pneumoniae [48]
  Percent of isolates resistant: 0.7%
[49]
  Activity: 0%
Enterococcus faecium [18]
  MIC90: > 16 µg/mL
Streptococcus pyogenes [50]
  Activity: 0.1%
Enterococcus faecalis [21]
  Activity: 38.4%
Enterococcus faecalis [22]
  MIC90: > 16 µg/mL
Streptococcus pyogenes [51]
  Activity: 0.8%
Enterococcus faecium [26]
  MIC90: > 16 µg/mL
Enterococcus faecalis [29]
  Activity: 100%
Enterococcus faecium [32]
  Activity: 0.2%
Enterococcus faecium [55]
  Activity: 100%
[52]
  Activity: 0%
Enterococcus faecalis [35]
  MIC90: > 16 µg/mL
Enterococcus faecalis [36]
  Activity: 100%
Enterococcus faecalis [37]
  Activity: 35.2%
[53]
  Activity: 0%
Enterococcus faecalis [38]
  Activity: 100%
Enterococcus faecium [39]
  Activity: 66%
Enterococcus faecium [56]
  Activity: 99.8%
Enterococcus faecium [41]
  Activity: 0%
